Reference: patent US10548994B1, “Control of chronic neuropathic pain and allodynia” (STC.UNM, priority 2013, dated 2020)
Entries after “also recorded” stand apart in the source; their conditions may differ.

Columns and labels:
[1] = tested on: leukocytes; details: prior work; cited from earlier work
[2] = tested on: RAW 264.7 macrophage cells; experiment: LPS-induced NO production in RAW 264.7 macrophage cells; assay type: cell-based, mouse; details: NorBIRT 500 ng/ml pre-treatment 1, 2, 4 h; LPS 500 ng/ml 24 h
Description: The ability of NorBIRT to inhibit LPS-induced NO production in RAW 264.7macrophage cells was tested. Cells were pre-treated with NorBIRT (500 ng/ml) for 1, 2, and 4 h then exposed to LPS (500 ng/ml) for 24 h.

[3] = tested on: TNF-α; experiment: TNF-α protein (ELISA) in LPS stimulated RAW 264.7 cells; assay type: cell-based, mouse; details: NorBIRT 500 ng/ml 1 h, LPS 500 ng/ml 4 and 24 h
Description: In this experiment, cells were incubated with NorBIRT (500 ng/ml; 1 h) and after treatment with LPS (500 ng/ml; 4 and 24 h) the protein levels of TNF-α was evaluated by ELISA.

[4] = tested on: IL-1β; experiment: IL-1β (ELISA) in supernatants and cell lysates of LPS-stimulated RAW 264.7 cells; assay type: cell-based, mouse; details: NorBIRT 500 ng/ml pretreatment, LPS 500 ng/ml
Description: Additionally, RAW 264.7 cells were pretreated with 500 ng/ml of NorBIRT and were stimulated with LPS (500 ng/ml). The levels of IL-1β were measured by ELISA, (A) supernatants and (B) celllysates. […] FIG. 22 illustrates that NorBIRT inhibits LPS-stimulated expression of IL-1β in RAW 264.7 cells.
(§1) Given the intriguing profile of NorBIRT's actions on reversing allodynia, we examined whether NorBIRT additionally altered proinflammatory cytokine levels. […] Intracellular IL-1b requires enzymatic cleavage to produce the mature released form. […] Thus NorBIRT is blocking the release of mature IL-1b. […] So, NorBIRT may additionally have anti-inflammatory properties.

[5] = tested on: IL-10; experiment: IL-10 protein (ELISA) in LPS-stimulated RAW 264.7 cells; assay type: cell-based, mouse; details: co-incubation with NorBIRT and LPS 500 ng/ml
Description: Protein levels of Il-10 were evaluated using ELISA.
as §1

[6] = tested on: CCL2; experiment: LPS-stimulated CCL2 production in RAW 264.7 cells; assay type: cell-based, mouse; details: NorBIRT 500 ng/ml 1 h; LPS 500 ng/ml 24 h; supernatants and cell lysates
Description: RAW 264.7 cells were also pretreated with NorBIRT (500 ng/ml) for 1 h before being incubated with LPS (500 ng/ml) for 24 h. The culture supernatant was analyzed for CCL2 production in both, supernatants and celllysates.

[7] = tested on: LFA-1; experiment: LPS-stimulated LFA-1 protein expression (ELISA, cell lysates) in RAW 264.7 cells; assay type: cell-based, mouse; details: NorBIRT 500 ng/ml 2 and 4 h, LPS 500 ng/ml 24 h
Description: Further, RAW 264.7 cells were pretreated with NorBIRT (500 ng/ml) for 2 and 4 h before being incubated with LPS (500 ng/ml). After 24 h of incubation, LFA-1 was measured in celllysates by ELISA.

[8] = tested on: RAW 264.7 cells; experiment: Mouse macrophage cell migration in response to CCL2; assay type: cell-based; details: recombinant mouse CCL2 (2D-100 ng/ml)
Description: Mouse macrophages cell migration in response to CCL2 was assessed with recombinant mouse CCL2 (2D-100 ng/ml) in RAW 264.7 cells. Latrunculin was used as a positive control to inhibit cell migration.

[9] = tested on: RAW 264.7 cells; experiment: WST-1 cytotoxicity/viability assay; assay type: cell-based, mouse; details: 50, 100, SOO, and 1000 ng/ml, 24 h
Description: RAW 264.7 cells were treated with NorBIRT for the indicated concentrations (50, 100, SOO, and 1000 ng/ml) for 24 h. Cytotoxicity was analyzed using an WST-1 assay. The WST-1 conversion assay was based on the mitochondrial function of intact cells.

[10] = tested on: rats with sciatic nerve chronic constriction injury (CCI); experiment: Sciatic nerve chronic constriction injury (CCI) allodynia, von Frey test; assay type: in vivo, rat; details: for reversal of CCI-induced mechanical allodynia: 10 days after CCI
Source text: Glial (astrocytes, microglia, satellite & Schwann) cells are recognized as contributing to the development and maintenance of neuropathic pain [86]. Glia are well-known to serve a number of housekeeping functions for healthy neuronal communication. […] Glia have receptors for and are activated by invading pathogens, neuropeptides and neurotransmitters. Once activated, glia can contribute to persistent pathological pain by responding to and releasing factors that act on both neurons and surrounding glia. Classic immune signals include the pro-inflammatory cytokines, interleukin-1 (IL-1β) and tumor necrosis factor-alpha (TNF-α), and chemokines such as CCL2 [139, 142]. Chronic constriction injury (CCI) is a well-characterized animal model that involves both inflammation and trauma around one sciatic nerve. Loose sciatic nerve ligation of 4 sutures produces allodynia in hind paws of rodents. Allodynia in rodents is often measured by hind paw responses to low threshold mechanical stimuli (von Frey test). Clinically, allodynia is well-documented as a common problem for neuropathic pain patients, and the von Frey test is a highly validated assessment tool for allodynia. Several gene therapy vector approaches for neuropathic pain control are being pursued for directed delivery to the dorsal spinal cord & DRG (the pain compartments) & to specific cell types within those compartments, such as glial cells in the DRG (satellite & Schwann cells) or astrocytes and microglia in the dorsal horn of the spinal cord, with one recent clinical trial underway.
We sought to identify the best vector system, either of the viral-based adeno-associated virus (AAV) or the non-viral DNA-based vector (plasmid DNA; pDNA), to achieve therapeutic pain control when delivered to the spinal subarachnoid space (IT). […] While successful, the viral vectors were short-lived in their effects when one considers clinical neuropathic pain control. […] While continued progress toward designing improved viral vector systems may be worthy of future exploration, the optimal vector identified for long-duration pain control during the current grant period was determined to be free pDNA encoding the IL-10 gene (FIG. 2). Behavioral pain assessment is conducted as previously described. Briefly, rats are placed in a quite, dimly lit room and allowed to habituate to the testing environment for 4 consecutive days, 1 hr/day. Baseline (BL) responses are assessed with a series of graded calibrated filaments (0.4 g-15.0 g) applied to the plantar surface of the hindpaws for 6 sec, which elicits a reliable paw withdrawal response. The pDNA-based vector used in data described here and in ‘Preliminary Data’ contains inverted terminal repeat (ITRs) palindromic nucleotide sequences that are residual components from the original AAV vector and provide additional promoter activity, albeit, somewhat weak.. Therefore ITRs would only serve to augment the transcription driven by the expression cassette. The transcriptional cassette contains the cytomegalovirus enhancer/chicken b-actin promoter (CB-actin promoter), an intronic region, the rat IL-10 gene with a spontaneous point mutation (F129S) and the SV40 polyadenylation signal region.
The animal models used in the experiments of this example extend to the well characterized & widely used model of peripheral neuropathy—sciatic nerve chronic constriction injury which combines both direct trauma plus inflammation to the sciatic nerve. When the peripheral nerves become unhealthy, neuropathic pain often ensues. This model combines both inflammation from loosely tied chromic gut ligatures that leads to a localized inflammation followed by slight constriction. In this model, spinal cord glia are activated, PICs are produced and blocking the actions of glia & PICs prevents and reverses neuropathic pain.
This stimulus elicits a paw withdrawal response. Under normal conditions, rats respond to about 10 g of pressure. […]

[11] = tested on: 111In-leukocytes in lumbosacral spinal canal of CCI rats; experiment: SPECT/CT imaging of 111In-labeled leukocyte accumulation in lumbosacral spinal canal; assay type: in vivo, rat; details: NorBIRT injected vs saline
Source text: Initially, we determined that peripheral leukocytes accumulate in spinal regions that are necessary for pain signaling. We used a small animal SPECT/CT imaging system (single-photon emission computerized tomography) which was very similar to PET imaging, but which had better resolution. […] Blocking spinal leukocyte accumulation may be a novel therapeutic target promising for future clinical applications.
We next investigated whether peripheral immune cells in addition to spinal glia could participate in ongoing pain changes. First, it was determined whether leukocytes could extravasate into the lumbosacral region during ongoing neuropathy. Peritoneal leukocytes from same-strain donor rats were collected and labeled with a gamma-emitting radio-isotope […] and injected i.v. into either CCI or sham treated rats. Biodistributions were examined using a small animal SPECT/.
We quantified radioactivity—in uCis—in very discrete spinal regions of interest related to incoming sciatic pain information. We determined discrete differences in the levels of uCi activity within specific Lumbar vertebra and from the underlying L4-L6 spinal canal, even the associated intervertebral disc regions. We analyzed the L4-L6 spinal canal

[12] = tested on: rats with sciatic nerve chronic constriction injury (CCI); details: IT IL-10 protein 4 hr prior to IT pDNA-IL10; cited from earlier work
[13] = tested on: innate immune cells (macrophage, dendritic cells); details: IT IL-10 protein 4 hr prior to IT pDNA-IL10; cited from earlier work
[14] = i.t. 10-fold higher dose of NorBIRT (Example 10)

Molecule: CN1C(=O)N(c2cc(Cl)cc(Cl)c2)C(=O)[C@@]1(C)Cc1ccc(Br)cc1 [BIRT-377, reference compound]
- antiproliferative and anti-migratory properties of leukocytes [1]: exert antiproliferative and anti-migratory properties

Molecule: C[C@@]1(Cc2ccc(Br)cc2)C(=O)N(c2cc(Cl)cc(Cl)c2)C(=O)N1CCCCCN [NorBIRT]
- LPS-induced NO production [2]: inhibits
- expression (protein levels) of TNF-α [3]: attenuates
- IL-1β release / LPS-stimulated expression (supernatants) [4]: reduced; also recorded: attenuated; also recorded: inhibits
- intracellular IL-1β (cell lysates) [4]: substantially increased
- IL-10 protein levels / release [5]: increases; also recorded: dose-dependently increased
- LPS-stimulated CCL2 production [6]: does not inhibit
- LPS-stimulated LFA-1 protein expression [7]: inhibits
- macrophage cell migration in response to CCL2 [8]: inhibits
- viability of RAW 264.7 cells [9]: does not affect
- change in allodynia ([10]; 500 ng i.v. NorBIRT vs saline, 48 and 72 hrs later): significant change; also recorded: reverses
- allodynia fully returned ([10]; after i.t. NorBIRT (Example 11)): ≤ 10 days
- reversal of 45-day enduring allodynia ([10]; higher dose i.t. NorBIRT on day 45): substantially reversed
- reversal of allodynia ([10]; i.t. 5 ng NorBIRT vs saline (Example 10)): very modestly reversed
- return of allodynia [10, 14]: ≤ 9 days
- reversal of allodynia [10, 14]: substantial reversal
- reversal of 10-day CCI-induced bilateral mechanical allodynia ([10]; i.t. NorBIRT vs i.t. vehicle (Example 11)): reversed
- time of peak effect after injection ([10]; i.t. NorBIRT, compared to sham controls): four
- effect on allodynia ([10]; i.t. higher dose 100 ng vs vehicle (Example 11)): dramatic reversal
- effect on allodynia ([10]; i.t. low dose 5 ng vs vehicle (Example 11)): lacking effects
- effect on allodynia ([10]; i.v. 5000 ng): attenuated allodynia bilaterally
- effect on allodynia ([10]; i.v. 100 000 ng): attenuated allodynia bilaterally
- dose-dependent reversal from allodynia ([10]; i.v. low dose, 5 days after injection, vs saline): did not produce
- reversal of CCI-induced mechanical allodynia ([10]; i.v. low dose, second experiment): did not reverse
- dose-dependent reversal from allodynia ([10]; i.v. low dose, throughout 8 days after injection, vs Sham): does not produce
- reversal of CCI-induced mechanical allodynia ([10]; i.v., relatively high doses, first experiment): reverses
- leukocyte accumulation (uCi signal) in lumbosacral spinal canal [11]: no signal
- antiproliferative and anti-migratory properties of leukocytes [1]: exert antiproliferative and anti-migratory properties

Molecule: IL-1 receptor antagonist: blocks spinal cord actions of IL1; drug with short half-life
- time of return of allodynia ([10]; intrathecal IL-1 receptor antagonist): ≤ 24 h
- effect on allodynia ([10]; intrathecal, after CCI): completely abolishes

B1: IL-10 protein: IT IL-10 protein (without transgene) (protein, UniProt P22301 19-178, looked up)
Interleukin-10: SPGQGTQSENSCTHFPGNLPNMLRDLRDAFSRVKTFFQMKDQLDNLLLKESLLEDFKGYLGCQALSEMIQFYLEEVMPQAENQDPDIKAHVNSLGENLKTLRLRLRRCHRFLPCENKSKAVEQVKNAFNKLQEKGIYKAMSEFDIFINYIEAYMTMKIRN
- long duration pain relief after IT pDNA-IL-10 [12]: prevented
- cellular enrichment in surrounding CSF after IT pDNA-IL10 [13]: prevented
